pEC50: −log10 of the molar value.
tested on: AMPK; test: EC50 data of compounds of the disclosure (Table A; AMPK agonists); format: biochemical; conditions: Table A '>10 μM'; cells list compound numbers

Question: With CCN(CC)c1ccc(-c2cc3c(C(=O)NOC)c[nH]c3cc2Cl)c(OC)n1 [compound 1074] as the compound, how does the pEC50 read?
Answer: < 5.00

Question: With CONS(=O)(=O)c1c[nH]c2cc(Cl)c(-c3ccc(C4CCCCO4)cc3)cc12 (stereo not shown) [compound 1109, 6-chloro-N-methoxy-5-(4-(tetrahydro-2H-pyran-2-yl)phenyl)-1H-indole-3-sulfonamide] as the compound, how does the pEC50 read?
Answer: < 5.00

Question: With CCONC(=O)c1c[nH]c2cc(Cl)c(-c3ccc(C4(O)CCC4)nc3)cc12 [compound 1099] as the compound, how does the pEC50 read?
Answer: < 5.00

Question: With CONC(=O)c1c[nH]c2cc(Cl)c(-c3ccc(N(C)C)nc3O)cc12 [compound 1041] as the compound, how does the pEC50 read?
Answer: < 5.00

Question: With CCONC(=O)c1c[nH]c2cc(Cl)c(-c3ccc(C#N)cc3OC)cc12 [compound 1097] as the compound, how does the pEC50 read?
Answer: < 5.00

Question: With CONC(=O)c1c[nH]c2cc(Cl)c(-c3ccc(N4CC5(CCC5)C4)nc3OC)cc12 [compound 1050] as the compound, how does the pEC50 read?
Answer: < 5.00

Question: With CONC(=O)c1c[nH]c2cc(Cl)c(-c3ccc(N(C)CCCN(C)C)nc3OC)cc12 [compound 1064] as the compound, how does the pEC50 read?
Answer: < 5.00

Question: With CONC(=O)c1c[nH]c2cc(Cl)c(-c3ccc(N(C)CC4CCC4)nc3OC)cc12 [compound 1054] as the compound, how does the pEC50 read?
Answer: < 5.00

Question: With CONC(=O)c1c[nH]c2cc(Cl)c(-c3ccc(N(C)CCOC(C)C)nc3OC)cc12 [compound 1052] as the compound, how does the pEC50 read?
Answer: < 5.00

Question: With CCc1cc(N(C)C)ccc1-c1cc2c(C(=O)NOC)c[nH]c2cc1Cl [compound 1100] as the compound, how does the pEC50 read?
Answer: < 5.00

Question: With COc1nc(N(C)C)ccc1-c1cc2c(C(=O)NOc3ccccc3)c[nH]c2cc1Cl [compound 1012, 6-chloro-5-(6-(dimethylamino)-2-methoxypyridin-3-yl)-N-phenoxy-1H-indole-3-carboxamide] as the compound, how does the pEC50 read?
Answer: < 5.00

Question: With CONC(=O)c1c[nH]c2cc(Cl)c(-c3ccc(N(C)C)nc3C(F)(F)F)cc12 [compound 1021, 6-chloro-5-(6-(dimethylamino)-2-(trifluoromethyl)pyridin-3-yl)-N-methoxy-1H-indole-3-carboxamide] as the compound, how does the pEC50 read?
Answer: < 5.00

Question: With CONS(=O)(=O)c1c[nH]c2cc(Cl)c(-c3ccc(-c4ccccc4)cc3)cc12 [compound 1110, 5-([1,1′-biphenyl]-4-yl)-6-chloro-N-methoxy-1H-indole-3-sulfonamide] as the compound, how does the pEC50 read?
Answer: < 5.00

Question: With CCONC(=O)c1c[nH]c2cc(Cl)c(-c3ccc(N(CC)CC)nc3OC)cc12 [compound 1075] as the compound, how does the pEC50 read?
Answer: < 5.00

Question: With CONS(=O)(=O)c1c[nH]c2cc(Cl)c(-c3ccc(N(C)C)nc3OC)cc12 [compound 1028, 6-chloro-5-(6-(dimethylamino)-2-methoxypyridin-3-yl)-N-methoxy-1H-indole-3-sulfonamide] as the compound, how does the pEC50 read?
Answer: < 5.00

Question: With CONC(=O)c1c[nH]c2cc(Cl)c(-c3ccc(N4CCC(C)CC4)nc3OC)cc12 [compound 1049] as the compound, how does the pEC50 read?
Answer: < 5.00

Question: With COCCN(C)c1ccc(-c2cc3c(C(=O)NOC)c[nH]c3cc2Cl)c(OC)n1 [compound 1051] as the compound, how does the pEC50 read?
Answer: < 5.00

Question: With CCONC(=O)c1c[nH]c2cc(Cl)c(-c3ccc(N(C)C)nc3OC)nc12 [compound 1090] as the compound, how does the pEC50 read?
Answer: < 5.00

Question: With CCOc1nc(N(C)C)ccc1-c1cc2c(C(=O)NOC)c[nH]c2cc1Cl [compound 1020, 6-chloro-5-(6-(dimethylamino)-2-ethoxypyridin-3-yl)-N-methoxy-1H-indole-3-carboxamide] as the compound, how does the pEC50 read?
Answer: < 5.00

Question: With COc1nc(N(C)C)ccc1-c1cc2c(C(=O)NOCCN(C)C)c[nH]c2cc1Cl [compound 1060] as the compound, how does the pEC50 read?
Answer: < 5.00

Question: With CONC(=O)c1c[nH]c2cc(Cl)c(-c3ccc(N4CCC(F)(F)CC4)nc3OC)cc12 [compound 1058] as the compound, how does the pEC50 read?
Answer: < 5.00

Question: With CCONC(=O)c1c[nH]c2cc(Cl)c(-c3ccc(C4(CO)CC4)nc3)cc12 [compound 1101] as the compound, how does the pEC50 read?
Answer: < 5.00

same assay, conditions: Table A column head '<100 nM'; cells list compound numbers

Question: With CONC(=O)c1c[nH]c2cc(Cl)c(-c3ccc(N(C)C)nc3OC)cc12 [compound 1003, 6-chloro-5-(6-(dimethylamino)-2-methoxypyridin-3-yl)-N-methoxy-1H-indole-3-carboxamide] as the compound, how does the pEC50 read?
Answer: > 7.00

Question: With CONC(=O)c1c[nH]c2cc(F)c(-c3ccc(C4CCCCO4)cc3)c(F)c12 (stereo not shown) [compound 1007, 4,6-difluoro-N-methoxy-5-(4-(tetrahydro-2H-pyran-2-yl)phenyl)-1H-indole-3-carboxamide] as the compound, how does the pEC50 read?
Answer: > 7.00

tested on: not listed separately; test: Blood Brain Barrier (BBB) data, brain/plasma ratio (Table B); format: in vivo; conditions: brain and plasma; calculated at a 3 hr time point; Table B column heads <0.1, 0.1-1, >1; cells list compound numbers
Description: Blood Brain Barrier (BBB) data was evaluated for compounds of the disclosure and the values are shown in Table B. Brain/plasma ratio was calculated at a 3 hr time point).

Question: For COc1nc(N(C)C)ccc1-c1cc2c(C(=O)NO)c[nH]c2cc1Cl [compound 1001, 6-chloro-5-(6-(dimethylamino)-2-methoxypyridin-3-yl)-N-hydroxy-1H-indole-3-carboxamide], which Kp at 3 h is on record?
Answer: < 0.1

Question: With COCCONC(=O)c1c[nH]c2cc(Cl)c(-c3ccc(C4(O)CCC4)cc3)cc12 [compound 1045] as the compound, how does the Kp at 3 h read?
Answer: < 0.1

Question: For CONC(=O)c1c[nH]c2cc(Cl)c(-c3ccc(N(C)C)nc3OC)cc12 [compound 1003, 6-chloro-5-(6-(dimethylamino)-2-methoxypyridin-3-yl)-N-methoxy-1H-indole-3-carboxamide], which Kp at 3 h is on record?
Answer: > 1

Question: Which Kp at 3 h does the source give for CCONC(=O)c1c[nH]c2cc(Cl)c(-c3ccc(N(C)C)nc3OC)cc12 [compound 1009, 6-chloro-5-(6-(dimethylamino)-2-methoxypyridin-3-yl)-N-ethoxy-1H-indole-3-carboxamide] here?
Answer: 0.1 to 1

Question: For OCC1(c2ccc(-c3cc4c(-c5nnn[nH]5)c[nH]c4cc3Cl)s2)CC1 [compound 1084], which Kp at 3 h is on record?
Answer: < 0.1

Question: With COc1nc(N(C)C)ccc1-c1cc2c(C(=O)NOCC3CC3)c[nH]c2cc1Cl [compound 1015, 6-chloro-N-(cyclopropylmethoxy)-5-(6-(dimethylamino)-2-methoxypyridin-3-yl)-1H-indole-3-carboxamide] as the compound, how does the Kp at 3 h read?
Answer: 0.1 to 1

Question: For CS(=O)(=O)NC(=O)c1c[nH]c2cc(Cl)c(-c3ccc(-c4ccccc4)cc3)cc12 [compound 1112], which Kp at 3 h is on record?
Answer: < 0.1

Question: Which Kp at 3 h does the source give for CCONC(=O)C(=O)c1c[nH]c2cc(Cl)c(-c3ccc(N(C)C)nc3OC)cc12 [compound 1081] here?
Answer: < 0.1

Question: Which Kp at 3 h does the source give for CONC(=O)C(=O)c1c[nH]c2cc(Cl)c(-c3ccc(N(C)C)nc3OC)cc12 [compound 1077, 2-(6-chloro-5-(6-(dimethylamino)-2-methoxypyridin-3-yl)-1H-indol-3-yl)-N-methoxy-2-oxoacetamide] here?
Answer: < 0.1

Question: Which Kp at 3 h does the source give for COCCONC(=O)c1c[nH]c2cc(Cl)c(-c3ccc(N(C)C)nc3OC)cc12 [compound 1011, 6-chloro-5-(6-(dimethylamino)-2-methoxypyridin-3-yl)-N-(2-methoxyethoxy)-1H-indole-3-carboxamide] here?
Answer: 0.1 to 1
